Results as given in patent US20050221328A1, “Inhibitors of inflammatory gene activity and cholesterol biosynthesis” (Wyeth, priority 2002, published 2005).

Experiments:
[1] = system: prostaglandin D synthase, IPS; test: Liver expression of prostaglandin D synthase and IPS; format: in vivo; conditions: mouse liver; 30 mg/kg/day genistein, 5 mg/kg/day raloxifene
Source text: Referring to FIGS. 6a and 6b, experiments were constructed and performed to establish that EE induction of gene expression is not required for ERα inhibition of IL-1β gene inductions. […] The expression level in the vehicle+PBS treated mice was defined as 1.0. […] However, there was no correlation between the ability of these compounds to inhibit IL-1β gene induction (EE>genistein>raloxifene) and the ability of these compounds to stimulate prostaglandin D synthase expression (EE>>raloxifene>genistein).

[2] = system: Fnk, JAB, LIX, bcl-3 and SHP; test: Liver expression of Fnk, JAB, LIX, bcl-3 and SHP by realtime PCR after estrogen receptor ligand pretreatment and IL-1β; conditions: 100 ug/kg/day EE, 5 mg/kg/day raloxifene
Procedure: Referring to FIG. 3a, to distinguish these two mechanisms, the IL-1β fold induction of Fnk, JAB, LIX, and bcl-3 and the IL-1β fold repression of SHP was quantified in animals pretreated with vehicle (black bars) or 100 ug/kg/day EE (grey bars). Liver RNA levels of each gene (mean +/−SEM) were determined by realtime PCR of RNA from each individual animal.
Referring to FIGS. 4a, 4b, 4c, 4d and 4e, experiments were conducted to determine whether EE blocks IL-1β induction of gene expression by an estrogen receptor (ER) dependent mechanism. Estrogens can regulate gene expression by many mechanisms including ER independent pathways such as antioxidant mechanisms. […] Liver expression levels of Fnk, JAB, LIX, bcl-3 and SHP (mean +/−SEM) were determined by realtime PCR.
Referring to FIGS. 5a, 5b, 5c, 5d, and 5e, experiments were conducted to determine whether ERα is required for EE regulation of gene expression in the liver. To determine whether ERα or ERβ mediated the EE effects on IL-1β gene expression in the liver, C57BL/6 wild type mice, C57BL/6 ERαKO mice, or 129 ERβKO mice were pretreated with vehicle (black bars) or […] EE (gray bars) for 5 days followed by a 1 hour treatment with IL-1β. Liver expression levels of Fnk, JAB, LIX, bcl-3, and SHP (mean +/−SEM) were quantified by realtime PCR, with expression in animals receiving vehicle+PBS defined as 1.0.

- effect on regulation of liver Fnk, JAB, LIX, bcl-3 and SHP expression vs IL-1β alone ([2]; mice, 1 or 10 mg/kg/day E2, 30 mg/kg/day genistein, 10 mg/kg/day ICI182780, plus IL-1β): magnitude was not as great
- inhibition of IL-1β induction of Fnk, JAB, LIX and bcl-3 ([2]; mouse liver, 30 mg/kg/day genistein): inhibited
SMILES: O=c1c(-c2ccc(O)cc2)coc2cc(O)cc(O)c12 [Genistein, genistein]
- induction of IPS [1]: no induction
